Source: PMC4775997, “Imidazopyridazine Inhibitors of Plasmodium falciparum Calcium-Dependent Protein Kinase 1 Also Target Cyclic GMP-Dependent Protein Kinase and Heat Shock Protein 90 To Kill the Parasite at Different Stages of Intracellular Development” (Antimicrobial Agents and Chemotherapy, 2016)
Where two headings read alike, the source gives them in different places.

Columns and labels:
[1] = target: PfHSP90 (Plasmodium falciparum, UniProt Q8IC05); experiment: Tryptophan fluorescence binding, full-length PfHSP90; conditions: tryptophan fluorescence 346 nm; [SE] of triplicate measurements; read-out: Kd, full-length PfHSP90
PfHSP90, sequence (Q8IC05 entry or part of it): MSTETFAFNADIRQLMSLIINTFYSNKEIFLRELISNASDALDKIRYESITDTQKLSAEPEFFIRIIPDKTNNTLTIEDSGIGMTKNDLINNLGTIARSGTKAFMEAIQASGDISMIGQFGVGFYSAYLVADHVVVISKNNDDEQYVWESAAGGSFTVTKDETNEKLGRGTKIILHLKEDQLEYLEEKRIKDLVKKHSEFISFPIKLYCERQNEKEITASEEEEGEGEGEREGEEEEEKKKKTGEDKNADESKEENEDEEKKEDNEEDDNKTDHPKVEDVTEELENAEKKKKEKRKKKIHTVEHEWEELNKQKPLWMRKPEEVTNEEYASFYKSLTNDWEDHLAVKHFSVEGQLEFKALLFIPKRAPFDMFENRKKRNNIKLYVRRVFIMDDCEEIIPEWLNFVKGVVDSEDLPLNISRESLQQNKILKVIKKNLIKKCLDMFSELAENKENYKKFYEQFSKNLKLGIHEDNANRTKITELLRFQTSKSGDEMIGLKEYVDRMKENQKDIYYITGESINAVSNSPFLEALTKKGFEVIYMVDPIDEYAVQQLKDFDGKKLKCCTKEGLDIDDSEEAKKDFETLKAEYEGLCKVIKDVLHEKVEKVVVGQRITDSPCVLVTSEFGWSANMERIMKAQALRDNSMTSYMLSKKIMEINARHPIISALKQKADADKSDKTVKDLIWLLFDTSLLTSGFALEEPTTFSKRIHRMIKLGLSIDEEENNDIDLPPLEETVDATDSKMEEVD
Experimental: (§1) The PCR product was cloned into pRSET-A (Life Technologies) between the BamHI and XhoI sites. Positive clones were confirmed by restriction digestion and sequencing. The clone was transformed into Escherichia coli Rosetta(pLysS) cells, and protein was expressed by induction with 0.1 mM isopropyl β-D-1-thiogalactopyranoside (IPTG) at 37°C for 2 h. PfHSP90 proteins were purified using Ni-nitrilotriacetic acid (NTA) affinity chromatography (Qiagen) as described in the manufacturer's protocol.
Tryptophan fluorescence analysis was performed using a PerkinElmer LS55 luminescence spectrometer. […] The binding buffer used for the reaction contained 50 mM Tris-HCl, pH 7.4, and 1 mM EDTA. Samples were excited at 280 nm, and tryptophan fluorescence measurements were carried out by scanning the emission spectrum in the wavelength range 300 to 400 nm. A maximum wavelength (λmax) of 346 nm was selected for all the calculations. The slit widths of excitation and emission were set at 2.5 and 5 nm, respectively. The difference in fluorescence intensity between protein alone and protein with various concentrations of 17-AAG or compound D was calculated and plotted against the different concentrations of the respective ligand used. The resultant hyperbolic curve was analyzed with GraphPad Prism software, using nonlinear regression analysis with single-site-specific binding as described previously ([32]).

[2] = target: PfHSP90-NTD (Plasmodium falciparum, UniProt Q8IC05); experiment: Tryptophan fluorescence binding, PfHSP90 N-terminal domain; conditions: tryptophan fluorescence 346 nm; [SE] of triplicate measurements; read-out: Kd, PfHSP90-NTD
PfHSP90-NTD, sequence (Q8IC05 entry or part of it): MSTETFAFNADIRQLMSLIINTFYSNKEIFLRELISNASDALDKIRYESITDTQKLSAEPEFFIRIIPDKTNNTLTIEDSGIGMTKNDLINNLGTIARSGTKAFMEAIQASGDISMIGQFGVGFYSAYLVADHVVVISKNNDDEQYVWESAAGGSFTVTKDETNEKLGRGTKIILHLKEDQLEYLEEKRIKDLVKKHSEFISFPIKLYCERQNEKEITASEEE
Source text: PfCDPK1 and PfCDPK1 T145G proteins were produced using methods described elsewhere ([23]). The PfHSP90 N-terminal domain (NTD) comprises the first 223 amino acids of PfHSP90. This region was amplified from the full-length PfHSP90-pRSET-A construct ([32]) using the following primers: primer 7, […]; primer 8, […].
as §1, with “PfHSP90 proteins were purified using Ni-nitrilotriacetic acid (NTA) affinity chromatography (Qiagen) as described in the manufacturer's protocol.” left out
Tryptophan fluorescence analysis was performed using a PerkinElmer LS55 luminescence spectrometer. […] Samples were excited at 280 nm, and tryptophan fluorescence measurements were carried out by scanning the emission spectrum in the wavelength range 300 to 400 nm. […] The difference in fluorescence intensity between protein alone and protein with various concentrations of 17-AAG or compound D was calculated and plotted against the different concentrations of the respective ligand used. The resultant hyperbolic curve was analyzed with GraphPad Prism software, using nonlinear regression analysis with single-site-specific binding as described previously ([32]).

[3] = system: P. falciparum 3D7; experiment: SYBR green I growth assay, wild-type parasites; type: cell-based, Plasmodium falciparum; conditions: for EC5048/EC5096 ratio: Table 1
[4] = target: CDPK1 (Plasmodium falciparum, UniProt P62344); experiment: biochemical; type: biochemical; conditions: read-out: Enzyme inhibition IC50, CDPK1
CDPK1, sequence (P62344 whole entry): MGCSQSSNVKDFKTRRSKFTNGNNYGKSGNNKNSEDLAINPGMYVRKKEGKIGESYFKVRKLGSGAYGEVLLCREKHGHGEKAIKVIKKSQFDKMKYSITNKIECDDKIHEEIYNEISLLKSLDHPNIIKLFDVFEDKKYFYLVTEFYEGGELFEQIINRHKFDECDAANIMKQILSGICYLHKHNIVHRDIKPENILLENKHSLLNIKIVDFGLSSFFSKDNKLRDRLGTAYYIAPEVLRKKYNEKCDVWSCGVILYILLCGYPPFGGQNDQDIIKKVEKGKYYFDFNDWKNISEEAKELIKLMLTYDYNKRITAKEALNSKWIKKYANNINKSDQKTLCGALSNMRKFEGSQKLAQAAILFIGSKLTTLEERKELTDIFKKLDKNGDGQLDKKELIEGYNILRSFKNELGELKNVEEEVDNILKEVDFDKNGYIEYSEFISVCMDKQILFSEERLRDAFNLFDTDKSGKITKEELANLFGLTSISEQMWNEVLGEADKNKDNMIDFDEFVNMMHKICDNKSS

[5] = target: T1, PfPKG (Plasmodium falciparum, UniProt Q8I719); experiment: Microfluidic fluorescent shift assay of cGMP-dependent protein kinase activity; type: biochemical
T1 construct: plasmids (pTrcHisC) encoding full-length PfPKG and PfPKG T618Q with N-terminal His tags; His tag (N); made in house; host or cells: E. coli Rosetta2(DE3)

[6] = target: T2, PfPKG T618Q (Plasmodium falciparum, UniProt Q8I719, T618Q); experiment: biochemical; type: biochemical
T2 construct: plasmids (pTrcHisC) encoding full-length PfPKG and PfPKG T618Q with N-terminal His tags; His tag (N); made in house; host or cells: E. coli Rosetta2(DE3)
T2 sequence (Q8I719 whole entry T618Q): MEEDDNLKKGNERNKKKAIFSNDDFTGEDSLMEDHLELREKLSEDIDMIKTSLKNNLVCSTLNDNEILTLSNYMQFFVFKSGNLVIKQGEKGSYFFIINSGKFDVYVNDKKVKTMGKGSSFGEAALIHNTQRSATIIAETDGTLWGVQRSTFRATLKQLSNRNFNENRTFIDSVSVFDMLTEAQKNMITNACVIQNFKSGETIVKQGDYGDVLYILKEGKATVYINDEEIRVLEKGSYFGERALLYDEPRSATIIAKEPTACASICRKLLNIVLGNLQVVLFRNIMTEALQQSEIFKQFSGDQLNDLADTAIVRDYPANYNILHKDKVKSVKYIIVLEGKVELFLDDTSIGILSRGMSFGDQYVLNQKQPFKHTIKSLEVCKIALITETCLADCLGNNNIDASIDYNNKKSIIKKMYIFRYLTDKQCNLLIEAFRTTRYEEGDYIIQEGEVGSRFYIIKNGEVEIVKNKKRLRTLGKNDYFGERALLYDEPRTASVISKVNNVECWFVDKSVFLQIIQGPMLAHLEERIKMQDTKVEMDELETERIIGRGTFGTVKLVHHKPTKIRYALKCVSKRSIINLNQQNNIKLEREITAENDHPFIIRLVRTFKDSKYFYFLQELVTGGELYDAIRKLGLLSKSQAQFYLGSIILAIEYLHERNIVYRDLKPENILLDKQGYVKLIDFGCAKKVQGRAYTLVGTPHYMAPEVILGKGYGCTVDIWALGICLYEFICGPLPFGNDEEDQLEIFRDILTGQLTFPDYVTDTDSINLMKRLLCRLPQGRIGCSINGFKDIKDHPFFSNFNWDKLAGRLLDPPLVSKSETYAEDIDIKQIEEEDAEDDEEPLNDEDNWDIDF

[7] = system: 3D7 PKG T618Q; experiment: microbe, parasite or virus in culture; type: cell-based, Plasmodium falciparum; conditions: for EC50: read-out: Parasite inhibition EC50, 3D7 PKG T618Q; for Ratio 3D7 PKG T618Q/3D7: Table S2
[8] = system: P. falciparum 3D7; experiment: Microscopic examination of Giemsa-stained smears (stage of action); conditions: for Stage of action (before or after DNA synthesis): Table S1, ring-stage parasites, 10x EC50 for 48 h; for Stage of action: ring stage parasites treated with 10 times the 96-h EC50 for 48 h
[9] = system: 3D7 CDPK1 T145T-HA; experiment: SYBR green assay, 3D7 CDPK1 T145T-HA line; type: cell-based; conditions: Plasmodium falciparum, 3D7, read-out: EC50, 3D7 CDPK1 T145T-HA
Experimental: (§2) Aliquots of 100 μl of P. falciparum cultures 24 h after erythrocyte invasion were transferred into 96-well culture dishes. Cells were incubated with inhibitors for 48 or 96 h (starting parasitemias were 0.3% and 0.03%, respectively). All drug treatments were carried out in duplicate at a final dimethyl sulfoxide (DMSO) concentration of 0.05%. After incubation, a modification of a previously described SYBR green assay was performed ([27]). Cells were lysed by the addition of 25 μl of buffer (20 mM Tris-HCl, pH 8.0, 2 mM EDTA, pH 8.0, 1.6% Triton X-100, 0.16% saponin, 10× SYBR green I [Life Technologies]). After incubation in the dark for 2 h, fluorescence of the samples was determined using a FLUOStar Omega plate reader (BMG Labtech) with excitation and emission filters of 485 nm and 520 nm, respectively. EC50s were calculated from a four-parameter logistical fit of the data using Prism software (GraphPad Software, Inc.).
(§3) Parasites expressing CDPK1 T145G and CDPK1 T145T were generated as described previously ([28]). Briefly, a region of homology to facilitate integration of the plasmid via single-crossover homologous recombination was amplified from P. falciparum 3D7 genomic DNA at 194 bp upstream of the ATG to bp 435 of the open reading frame using primers 1 and 2 for the wild-type (WT) version and primers 1 and 3 for the glycine version. […]

[10] = system: 3D7 CDPK1 T145G-HA; experiment: SYBR green assay, 3D7 CDPK1 T145G-HA line; type: cell-based; conditions: Plasmodium falciparum, 3D7, read-out: EC50, 3D7 CDPK1 T145G-HA
Experimental: as §2, §3

[11] = SYBR green I, 48 h incubation, mean of three independent experiments (SD), read-out: EC50 after treatment for 48 h
[12] = SYBR green I, 96 h incubation, mean of three independent experiments (SD), read-out: EC50 after treatment for 96 h
[13] = Table 2, SYBR green I, 96 h, single experiment, or mean (SD) of duplicate assays, read-out: Parasite inhibition EC50, 3D7
[14] = Table S1, single experiment with duplicate samples, or mean of triplicate experiments (SD), read-out: EC50 48 hours
[15] = read-out: Enzyme inhibition IC50, PKG
[16] = Table 2, ATP at Km 90 μM, read-out: Enzyme inhibition IC50, PKG T618Q
[17] = Table 2, SYBR green I, 96 h, single experiment, or mean (SD) of duplicate assays
[18] = Table S1, single experiment with duplicate samples, or mean of triplicate experiments (SD), read-out: EC50 96 hours
[19] = Table S2, read-out: Enzyme inhibition IC50, PKG
[20] = Table S2, read-out: Enzyme inhibition IC50, PKG T618Q

C=CCNC1=C2C[C@@H](C)C[C@H](OC)[C@H](O)[C@@H](C)/C=C(\C)[C@H](OC(N)=O)[C@@H](OC)/C=C\C=C(/C)C(=O)NC(=CC1=O)C2=O [Compound 17-AAG, 17-N-allylamino-17-demethoxygeldanamycin, reference compound]
Kd [1]: 8.7 µM
Kd [2]: 15.8 µM

NC1CCC(Nc2ccc3ncc(-c4cnc(Nc5ccccn5)c(F)c4)n3n2)CC1 (stereo not drawn) [Compound 20]
EC50 ([3]; Plasmodium falciparum, 3D7, 48 h, read-out: EC50 48 hours): 0.3 µM
EC50 ([3]; Plasmodium falciparum, 3D7, 48 h, read-out: EC50 after treatment for 48 h): 0.298 µM
EC50 ([3]; Plasmodium falciparum, 3D7, 96 h, read-out: EC50 96 hours): 0.14 µM
EC50 ([3]; Plasmodium falciparum, 3D7, 96 h, read-out: EC50 after treatment for 96 h): 0.142 µM
EC50 ([3]; Plasmodium falciparum, 3D7, 96 h, read-out: Parasite inhibition EC50, 3D7): 0.21 µM
EC5048/EC5096 ratio [3]: 2.1
ratio EC5048:EC5096 ([3]; Table S1): 2.1
IC50 ([4]; Table 2): 0.008 µM
IC50 [5]: 0.012 µM
IC50 [6]: 15.3 µM
EC50 ([7]; Plasmodium falciparum, 3D7, 96 h): 0.386 µM
3D7 PKG T618Q/3D7 EC50 ratio ([7]; Table 2): 1.8
Ratio 3D7 PKG T618Q/3D7 [7]: 2
Stage of action (before or after DNA synthesis) [8]: trophozoite
Stage of action [8]: Trophozoite

CC(C)CCNc1ccc(-c2cnc3ccc(NC4CCN(C)C4)nn23)cn1 (stereo not drawn) [Compound 22]
EC50 [3, 11]: 0.546 µM
EC50 [3, 12]: 0.3 µM
EC5048/EC5096 ratio [3]: 1.8
EC50 [3, 13]: 0.215 µM
ratio EC5048:EC5096 ([3]; Table S1): 1.8
EC50 [3, 14]: 0.55 µM
IC50 ([4]; Table 2): 0.074 µM
IC50 [5, 15]: > 1 µM
Selectivity (PKG T618Q/PKG IC50 ratio) ([6]; Table 2): <38
IC50 [6, 16]: 37.5 µM
3D7 PKG T618Q/3D7 EC50 ratio ([7]; Table 2): 1.4
EC50 [7, 17]: 0.303 µM
Ratio 3D7 PKG T618Q/3D7 [7]: 1
Stage of action (before or after DNA synthesis) [8]: trophozoite (before)
Stage of action [8]: Trophozoite

Fc1cccnc1Nc1ncc(-c2cnc3ccc(NC4CCC(N5CCNCC5)CC4)nn23)cn1 (stereo not drawn) [Compound 28]
EC50 [3, 11]: 0.168 µM
EC50 [3, 12]: 0.038 µM
EC5048/EC5096 ratio [3]: 4.4
EC5048/EC5096 ratio ([3]; listed as Compound 28): less than 5
EC50 [3, 13]: 0.059 µM
ratio EC5048:EC5096 ([3]; Table S1): 4.4
EC50 [3, 14]: 0.17 µM
EC50 [3, 18]: 0.04 µM
IC50 ([4]; Table 2): 0.012 µM
IC50 [5, 15]: 0.003 µM
IC50 [6, 16]: 31.7 µM
Selectivity PKG T618Q/PKG ([6]; Table S2): 12100
3D7 PKG T618Q/3D7 EC50 ratio ([7]; Table 2): 10.8
EC50 [7, 17]: 0.64 µM
Ratio 3D7 PKG T618Q/3D7 [7]: 11
Stage of action (before or after DNA synthesis) [8]: late schizont (after)
Stage of action [8]: Late schizont
Stage of action ([8]; listed as Compound 28): arrest parasites in late schizogony

CC(C)CCNc1ncc(-c2cnc3ccc(NC4CCN(C)C4)nn23)cn1 (stereo not drawn) [Compound 31]
EC50 [3, 11]: 1.66 µM
EC50 [3, 12]: 0.238 µM
EC5048/EC5096 ratio [3]: 7.0
ratio EC5048:EC5096 ([3]; Table S1): 7.0
EC50 [3, 14]: 1.66 µM
EC50 [3, 18]: 0.24 µM
IC50 ([4]; Table S2): 0.093 µM
IC50 [5, 19]: 0.287 µM
Selectivity PKG T618Q/PKG ([6]; Table S2): 21
IC50 [6, 20]: 5.95 µM
Stage of action (before or after DNA synthesis) [8]: late schizont
Stage of action [8]: Late schizont

Fc1cccnc1Nc1ncc(-c2cnc3ccc(NC4CCNCC4)nn23)cn1 [Compound 32]
ratio EC5048:EC5096 ([3]; Table S1): 16.6
EC50 [3, 14]: 1.79 µM
EC50 [3, 18]: 0.11 µM
IC50 ([4]; Table S2): 0.01 µM
IC50 [5, 19]: 0.007 µM
Selectivity PKG T618Q/PKG ([6]; Table S2): 931
IC50 [6, 20]: 6.16 µM

CN(C)C1CCN(c2ccc3ncc(-c4cnc(Nc5ncccc5F)nc4)n3n2)C1 (stereo not drawn) [Compound 35]
EC50 [3, 11]: > 1000 µM
EC50 [3, 12]: 0.809 µM
EC5048/EC5096 ratio [3]: >1,000
EC50 [3, 18]: 0.81 µM
IC50 ([4]; Table S2): 0.017 µM
IC50 [5, 19]: 0.05 µM
Selectivity PKG T618Q/PKG ([6]; Table S2): 10653
IC50 [6, 20]: 528 µM
Stage of action (before or after DNA synthesis) [8]: late schizont
Stage of action [8]: Late schizont

CN1CCC(CNc2ccc3ncc(-c4cnc(Nc5ncccc5F)nc4)n3n2)CC1 [Compound 38]
EC50 [3, 11]: > 1000 µM
EC50 [3, 12]: 0.05 µM
EC5048/EC5096 ratio [3]: >1,000
EC50 [3, 13]: 0.073 µM
IC50 ([4]; Table 2): 0.008 µM
IC50 [5, 15]: 0.004 µM
IC50 [6, 16]: 43.5 µM
Selectivity PKG T618Q/PKG ([6]; Table S2): 12187
3D7 PKG T618Q/3D7 EC50 ratio ([7]; Table 2): 11.8
EC50 [7, 17]: 0.859 µM
Ratio 3D7 PKG T618Q/3D7 [7]: 12
Stage of action (before or after DNA synthesis) [8]: late schizont
Stage of action [8]: Late schizont

CNc1ccc2ncc(-c3ccc(NCCC(C)C)nc3)n2n1 [Compound 42]
EC50 [3, 13]: 0.836 µM
IC50 ([4]; Table 2): 0.081 µM
3D7 PKG T618Q/3D7 EC50 ratio ([7]; Table 2): 1.5
EC50 [7, 17]: 1.23 µM
Ratio 3D7 PKG T618Q/3D7 [7]: 1

CC(C)CNc1ncc(-c2cnc3ccc(NC4CCN(C)CC4)nn23)cn1 [Compound 44]
EC90 ([3]; 3D7 parasites): 0.65 µM
EC50 [3, 13]: 0.236 µM
IC50 ([4]; Table 2): 0.065 µM
3D7 PKG T618Q/3D7 EC50 ratio ([7]; Table 2): 2.0
EC50 [7, 17]: 0.477 µM
Ratio 3D7 PKG T618Q/3D7 [7]: 2

CC(C)(C)n1nc(Cc2cccc3ccccc23)c2c(N)ncnc21 [NM-PP1, 1-(1,1-dimethylethyl)-3-(1-naphthalenylmethyl)-1H-pyrazolo[3,4-d]pyrimidin-4-amine]
EC50 [9]: 11.6 µM
EC50 [10]: 10.3 µM
